Results from patent US9896659B2, “Methods, kits, and compositions for stem cell self-renewal” (STOWERS INSTITUTE FOR MEDICAL RESEARCH, priority 2011, dated 2018).
Entries after “also recorded” stand apart in the source; their conditions may differ.

Columns and labels:
LSK Flk2^− cells [1] = test: 14-day ex vivo expansion of bone marrow MNCs in ST media with or without GSK3β inhibitor, FACS; assay type: cell-based, mouse; conditions: 14-day culture of MNCs; average; FIG. 26B (250 nM CHIR99021)
Protocol: For the experiments set forth in this Example, a particular HSC expansion media was used. This HSC expansion media consists of the following ingredients: (1) StemSpan Media (Stem Cell Technologies; Cat. No. 09600) (StemSpan Media consists of Iscove's-modified Dulbecco's medium (IMDM) supplemented with 1% bovine serum albumin, 10 μg/ml recombinant human insulin, 200 μg/ml iron-saturated transferrin, 0.1 mM 2-mercaptoethanol and 2 mM glutamine.); (2)10 μg/ml Heparin (Sigma; Cat. No. H-3149); (3) 0.5× Penicillin/Streptomycin (Sigma; Cat. No. P4333); (4) 10 ng/ml recombinant mouse (rm) or recombinant human (rh) Stem Cell Factor (SCF) (Biovision; Cat. No. 4328-10 or 4327-10, respectively); (5) 20 ng/ml rm or rh Thrombopoietin (Tpo) (Cell Sciences, Inc; Cat. No. CRT401B or CRT400B, respectively). CHIR99021 (250 nM) (Stemgent, Inc; Cat. No. 04-0004) may be added to this HSC expansion media as indicated.
Bone marrow cells were harvested from C57Bl/6 (CD45.2) mice and made into a single cell suspension by gently drawing through a 22 g needle several times. Mobilized peripheral blood or bone marrow from human patients was harvested at the University of Kansas Medical Center (Kansas City, Mo. USA). […] Mononuclear cells were isolated from mouse bone marrow using Histopaque 1077 (Sigma; Cat. No. 10771) and human blood or bone marrow using Ficoll-Paque PLUS (Stem Cell Technologies; Cat. No. 07917) according to the manufacturers' instructions. Cells were washed and resuspended in HSC expansion media. Cells were counted and a fraction of mononuclear cells (MNCs) were stained for lineage markers using CD3, CD4, CD8, B220, IgM, Mac-1, Gr1, and Ter119 antibodies along with Kit, Sca-1, and Flk2 for mouse HSC analysis or CD34 and CD38 for human HSC analysis. 1×10^6 cells/0.1 ml were stained at 4° C. for 30 minutes using 0.05 μg of antibody for each lineage marker and 0.2 μg for remaining antibodies. […] Frequency of putative HSCs (lineage negative, Sca-1^+, Kit^+, Flk-1^− for mouse or CD34^+, CD38^− cells for human) was determined by analyzing >3×10^6 cells per sample independently in triplicate. […]

[2] = system: lethally irradiated (10 Gy) CD45.1^+ recipient mice; test: Transplantation of cultured sorted LSK Flk2^− cells into lethally irradiated recipients, donor engraftment; assay type: in vivo, mouse; conditions: 28-day cultures, 1000 re-sorted LSK Flk2^− cells + 2×10^5 competitor cells; peripheral blood 4 weeks post-transplant
From the text: Cells were harvested from the wells prior to transplantation by pipetting up and down several times before transferring to a fresh tube. Residual was then collected by adding more media and repeating. Cells were washed in DMEM (Invitrogen, Cat. No. 31053) without phenol red and added to the appropriate number of whole bone marrow rescue cells from a congenic donor (for 200,000 rescue cells+1,000 re-sorted LSK Flk2^− cells (FIGS. 3F-H) or the non-adherent product of 10 days culture of 100 LSK Flk2^− cultured cells (FIGS. 3I-K) per mouse as indicated). […]
Repopulation was measured at 4 weeks post-transplant by collection of peripheral blood, red blood cell lysis, and staining of CD45.1 (recipient) compared to CD45.2 (donor) engraftment using antibodies purchased from eBiosciences (FITC conjugated CD45.2 (Cat. No. 11-0454-85) and PE-Cy5 conjugated CD45.1 (Cat. No. 15-0453-82)). […] Multi-lineage reconstitution was determined by CD3, B220 (for lymphoid) and Gr1, Mac-1 (for myeloid), as described above.
Cells cultured for 28 days in (1) media, (2) media+BpV(pic), (3) media+CHIR99021 and (4) media+CHIR99021 (1 μM)+BpV(pic) (200 nM) were re-sorted for LSK Flk2^− cells. […] At 4 weeks post-transplant, peripheral blood was analyzed for donor (FIG. 3G) and multi-lineage (FIG. 3H) engraftment. […]

LSK Flk2^− cells [3] = test: Ex vivo culture of sorted LSK Flk2^− cells with GSK-3β and PTEN inhibitors, expansion by FACS; assay type: cell-based, mouse
Protocol: LSK or LSK Flk2^− cells were sorted into 96-well U-bottom tissue culture plates at 100 cells/well with 200 μl media/well. Cells were incubated at 37° C., 5% O2, 5% CO2 (balance N2) for the indicated number of days. One-half total volume of media (see Table 1, below for the base media) was carefully pipetted from the top and replaced with fresh media every other day.
One hundred LSK Flk2^− cells were sorted from wild-type (C57Bl/6) mice and cultured in (1) media, (2) media+1 μM CHIR99021 (a GSK-3β inhibitor, a gift from Dr. Sheng Ding), (3) media+200 nM Dipotassium Bis-peroxo(picolinato)oxovanadate (BpV(pic), a PTEN inhibitor, available from Calbiochem, Cat. No. 203705), (4) media+1 μM CHIR99021+200 nM BpV(pic), (5) media+200 nM Shikonin (also a PTEN inhibitor, available from Calbiochem, Cat. No. 565850), and (6) media+200 nM Shikonin+1 μM CHIR99021. (FIGS. 3B-C). Cells were cultured as described above. Cells were examined at 17 days of culture (FIG. 3B, original magnification 100×) and 23 days (FIG. 3C, original magnification 40×).
LSK Flk2^− cells at 28 days culture in the indicated media conditions were examined (FIG. 3D, original magnification 200×).
FACS analysis of 28 day LSK Flk2^− cells cultured in media+BpV(pic)+CHIR99021 (FIG. 3E) was performed. Cells were pre-gated on live, lineage negative cells.
Fold expansion of LSK Flk2^− cells after 28 days culture in (1) media, (2) media+BpV(pic), (3) media+CHIR99021, and (4) media+CHIR99021+BpV(pic) were analyzed.
Cells cultured for 9 days in (1) media, (2) media+BpV(pic) (200 nM), (3) media+CHIR99021 (100 nM), and (4) media+CHIR99021 (100 nM)+BpV(pic) (200 nM) were re-sorted for LSK Flk2^− cells, and fold expansion of LSK Flk2^− cells after 9 days culture in the indicated conditions was determined (FIG. 3I).
FACS analysis was performed on 9 day LSK Flk2^− cells cultured in media+BpV(pic) (200 nM)+CHIR99021 (100 nM) (FIG. 3J). Cells were pre-gated on live, lineage negative cells.

[4] = system: lethally irradiated CD45.1 recipient mice; test: Competitive repopulation assay of 14-day cultures; assay type: in vivo, mouse; conditions: for Average repopulation: long-term engraftment (FIGS. 5 and 13)
Protocol: For the experimental results shown in FIG. 13A, sorted LSK Flk2^− cells and unsorted MNCs containing a known quantity of LSK Flk2^− cells (CD45.2^+) were cultured for 14 days in ST media with and without CHIR99021. The cultured product of 100 sorted or 5 unsorted LSK Flk2^− cells per mouse were transplanted into lethally irradiated recipients (CD45.1^+). 5 freshly isolated, unsorted LSK Flk2^− cells per mouse were transplanted into a separate group. 1×10^5 freshly isolated CD45.1^+ competitor/radioprotective cells were also added per mouse. Peripheral blood analysis of recipients at 16 weeks post-transplant depicts % chimerism.
(§1) Bone marrow mononuclear cells (MNCs) were fractionated and the concentration of lineage marker negative, Sca-1^+, c-Kit^+, Flk2^− (LSKF^−) cells was determined. MNCs containing a known quantity of LSKF^− cells were cultured for 14 days in media containing SCF and Tpo (ST), ST media with 250 nM CHIR99021 or ST media with 2 mM lithium chloride (LiCl) as indicated. After 14 days, the cellular product of these cultures was transplanted into lethally-irradiated recipients (10 Gray units) at a dosage corresponding to an original input into culture of MNCs containing 5 LSKF^− cells per mouse for each group. 1×10^5 competitor bone marrow cells congenic with the hosts (CD45.1^+) were included per mouse. At 4 weeks post-transplant, peripheral blood was collected from each transplant recipient, and donor vs. host derived hematopoietic cells were determined by FACS analysis.
as §1, with “At 16” for “At 4”
Cells were incubated at 37° C. with 5% CO2 and 5% O2 (balance N2) for 14 days. […]

With `Cc1c[nH]c(-c2cnc(NCCNc3ccc(C#N)cn3)nc2-c2ccc(Cl)cc2Cl)n1` [CHIR99021] as the molecule, how does the “Increase in total number of LSK Flk2^− cells” value (LSK Flk2^− cells [1]) read?
The value was 93 fold.

What about the “Mice showing >1% engraftment” value [2] of the same molecule?
Its value is 4/8.

What about the “Expansion of LSK cells compared to control (photographs)” value (LSK Flk2^− cells [3]; 17 and 23 days culture, 1 μM CHIR99021, 200 nM BpV(pic)) of the same molecule?
The value was “greater expansion of LSK cells”.

And the “Expansion of LSK Flk2^− cells compared to media without inhibitor” value (LSK Flk2^− cells [3]; 28 days culture)?
Its value is “significant expansion”.

What about the “Repopulation capacity of ex vivo expanded HSCs” value ([4]; 4 weeks post-transplant, 250 nM CHIR99021 or 2 mM LiCl in ST media, 14 days) of the same molecule?
Its value is “enhance repopulation capacity of ex vivo expanded hematopoietic stem cells”.

And the “Long-term repopulation / engraftment of ex vivo expanded HSCs” value ([4]; 16 weeks post-transplant, 250 nM CHIR99021 or 2 mM LiCl in ST media, 14 days)?
The value was “enhance long-term repopulation capacity of ex vivo expanded hematopoietic stem cells; also recorded: enhances long-term engraftment of ex vivo expanded HSCs”.

And the Average repopulation ([4]; 100 sorted putative HSCs cultured 14 days)?
Its Average repopulation is 12.3%.

What about the Average repopulation ([4]; unsorted MNC cultures, 14 days) of the same molecule?
The Average repopulation was 64.8%.
